The source of these data is US9150592B2, “Heterocyclic nuclear hormone receptor modulators” (AbbVie Inc., priority 2012, dated 2015).

This experiment concerns the target T1, Glucocorticoid Receptor (GR) (Homo sapiens, UniProt P04150).
T1 construct: purchased Invitrogen P2893
T1 sequence (P04150 1-777): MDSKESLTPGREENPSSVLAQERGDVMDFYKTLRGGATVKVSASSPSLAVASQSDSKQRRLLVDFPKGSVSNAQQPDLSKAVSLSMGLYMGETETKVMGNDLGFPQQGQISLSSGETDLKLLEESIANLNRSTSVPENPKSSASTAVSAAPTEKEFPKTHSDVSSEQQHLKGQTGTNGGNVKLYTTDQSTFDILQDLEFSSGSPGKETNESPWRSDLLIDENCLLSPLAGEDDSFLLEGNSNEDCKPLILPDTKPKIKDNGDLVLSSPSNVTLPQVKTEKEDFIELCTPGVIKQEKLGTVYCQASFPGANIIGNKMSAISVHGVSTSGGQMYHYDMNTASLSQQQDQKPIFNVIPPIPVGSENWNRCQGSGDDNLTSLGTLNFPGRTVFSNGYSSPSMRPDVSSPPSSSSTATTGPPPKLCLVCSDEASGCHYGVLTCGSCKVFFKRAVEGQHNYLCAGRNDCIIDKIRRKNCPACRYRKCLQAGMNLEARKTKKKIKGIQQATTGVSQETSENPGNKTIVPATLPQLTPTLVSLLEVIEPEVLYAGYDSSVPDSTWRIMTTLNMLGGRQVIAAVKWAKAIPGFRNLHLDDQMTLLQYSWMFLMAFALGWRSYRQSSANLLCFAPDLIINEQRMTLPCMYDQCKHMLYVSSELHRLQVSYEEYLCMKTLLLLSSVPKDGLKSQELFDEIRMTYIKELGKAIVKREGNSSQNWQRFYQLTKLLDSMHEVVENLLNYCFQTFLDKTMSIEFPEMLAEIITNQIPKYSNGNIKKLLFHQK
Briefly: GR Fluorescence Polarization Assay (PolarScreen Glucocorticoid Receptor Competitor Assay, Red). The note with it: IC50 class ranges, read-out: GR binding. On the procedure: GR Fluorescence Polarization Assay
Fluorescence polarization assays were carried out using the PolarScreen™ Glucocorticoid Receptor Competitor Assay, Red from Invitrogen (P2893). The assay buffer was prepared according to the manufacturer's protocol and used to dilute the fluorescent glucocorticoid and GR. Compounds were prepared and serial diluted 1:4 in DMSO. Compound, fluorescent glucocorticoid and GR were added in a final volume of 20 μL and incubated overnight at 4° C. Fluorescent polarization was measured on the PerkinElmer Envision®.

Where only a bound is given, the exact number is not on record here.

For `CNC(=O)c1cncc(-c2ccc(C3SCCNc4c3c(-c3ccccn3)nn4C)c(Cl)c2)c1` (stereo not drawn) [U.8], the IC50 lay in the range of 1000 to 10000 nM.

Turning to `Cn1nc(-c2ccccn2)c2c1NCCSC2c1ccc(C(C)(C)O)cc1Cl` (stereo not drawn), the IC50 lay within 1000 to 10000 nM.

As to `Cc1ncccc1NC(=O)c1ccc([C@H]2SC[C@@H](C)Nc3c2c(-c2ccccn2)nn3C)c(C#N)c1` (single isomer, unassigned) [M.19, 3-cyano-4-(1,7-dimethyl-3-(pyridin-2-yl)-4,6,7,8-tetrahydro-1H-pyrazolo[3,4-e][1,4]thiazepin-4-yl)-N-(2-methylpyridin-3-yl)benzamide], the IC50 lay in the range of 1000 to 10000 nM.

On to `Cn1nc(-c2ccccn2)c2c1NCCSC2c1ccc(-c2cncc(C(=O)N3CCOCC3)c2)cc1Cl` (stereo not drawn) [U.12], for which the IC50 was in the range of 100 to 1000 nM.

As for `Cc1cc(C#CCO)ccc1[C@H]1SC[C@@H](C)Nc2c1c(-c1ccccn1)nn2C` (single isomer, unassigned) [M.69, 3-(4-(1,7-dimethyl-3-(pyridin-2-yl)-4,6,7,8-tetrahydro-1H-pyrazolo[3,4-e][1,4]thiazepin-4-yl)-3-methylphenyl)prop-2-yn-1-ol], the IC50 was in the range of 100 to 1000 nM.

Regarding `Cc1cc(CCC(C)(C)O)ccc1[C@H]1SC[C@H](C)Nc2c1c(-c1ccccn1)nn2C` (single isomer, unassigned) [M.41, 4-(4-(1,7-dimethyl-3-(pyridin-2-yl)-4,6,7,8-tetrahydro-1H-pyrazolo[3,4-e][1,4]thiazepin-4-yl)-3-methylphenyl)-2-methylbutan-2-ol], the IC50 was 100 to 1000 nM.

As to `Cn1nc(-c2ccc(F)cc2F)c2c1NCCSC2c1ccc(Cl)cc1Cl` (stereo not drawn) [D.93], the IC50 is 100 to 1000 nM.

Regarding `Cn1nc(-c2ccccn2)c2c1NCCSC2c1ccc(-c2cncc(S(C)(=O)=O)c2)cc1Cl` (stereo not drawn) [U.1, 4-(2-Chloro-4-(5-(methylsulfonyl)pyridin-3-yl)phenyl)-1-methyl-3-(pyridin-2-yl)-4,6,7,8-tetrahydro-1H-pyrazolo[3,4-e][1,4]thiazepine tris(trifluoroacetate)], the IC50 fell in the range of 1000 to 10000 nM.

`Cn1nc(-c2ccccn2)c2c1NCCSC2c1ccc(-c2cnn(C3CCCCO3)c2)cc1Cl` (stereo not drawn) [U.6]: the IC50 was 100 to 1000 nM.

For the compound `CNC(=O)c1ccc(-c2nn(C)c3c2C(c2ccc(Cl)cc2Cl)SCCN3)nc1` (stereo not drawn) [I.3], the IC50 was in the range of 1000 to 10000 nM.

Consider `Cc1cc(Br)ccc1[C@H]1SC[C@@H](C)Nc2c1c(-c1nnco1)nn2C` [M.63, 2-(4-(4-bromo-2-methylphenyl)-1,7-dimethyl-4,6,7,8-tetrahydro-1H-pyrazolo[3,4-e][1,4]thiazepin-3-yl)-1,3,4-oxadiazole], for which the IC50 was 100 to 1000 nM.

For the compound `COc1cccc(C2SCCNc3c2c(C)nn3C)c1` (stereo not drawn) [D.81], the IC50 is 1000 to 10000 nM.

For `Cc1ncccc1C(=O)N1CCC(C2SCCNc3c2c(-c2ccccn2)nn3C)CC1` (stereo not drawn), the IC50 is greater than 10000 nM.

`Cc1ccc(-c2nn(C)c3c2C(c2ccc(Cl)cc2Cl)SCCN3)cc1` (stereo not drawn) [D.87]: the IC50 was in the range of 100 to 1000 nM.

As for `Cn1nc(-c2ccccn2)c2c1NCCSC2c1ccc(-c2cnccc2C#N)cc1Cl` (stereo not drawn) [U.10], the IC50 was in the range of 100 to 1000 nM.

With `Cn1nc(-c2cccnc2)c2c1NCCSC2c1ccc(Cl)cc1Cl` (stereo not drawn) [D.86], the IC50 fell in the range of 1000 to 10000 nM.

Turning to `Cc1ccc(Oc2ccc(C3SC(C)(C)CNc4c3c(C)nn4C)cc2)cc1` (stereo not drawn) [D.78], the IC50 fell in the range of 100 to 1000 nM.

As for `Cn1nc(-c2ccc(C(N)=O)cn2)c2c1NCCSC2c1ccc(Cl)cc1Cl` (stereo not drawn) [I.5], the IC50 was 1000 to 10000 nM.

In the case of `Cn1nc(-c2ccc(C(=O)O)cn2)c2c1NCCSC2c1ccc(Cl)cc1Cl` (stereo not drawn), the IC50 is 1000 to 10000 nM.

Consider `Cc1cc(Br)ccc1C1CCC(=O)Nc2c1c(C)nn2C` (stereo not drawn) [AA.2], for which the IC50 was in the range of 1000 to 10000 nM.

Regarding `Cn1nc(-c2ccccn2)c2c1NCCSC2c1ccc(-c2cnn(CCC#N)c2)cc1Cl` (stereo not drawn) [U.16], the IC50 is 100 to 1000 nM.

In the case of `CCn1nc(-c2ccccn2)c2c1N[C@@H](C)CS[C@H]2c1ccc(CCC(C)(C)N)cc1C` [Q.1], the IC50 fell in the range of 100 to 1000 nM.

As to `CCn1nc(-c2ccccn2)c2c1N[C@@H](C)CS[C@@H]2c1ccc(C#CC(C)(C)O)cc1C` (single isomer, unassigned) [M.29, 4-(4-(1-ethyl-7-methyl-3-(pyridin-2-yl)-4,6,7,8-tetrahydro-1H-pyrazolo[3,4-e][1,4]thiazepin-4-yl)-3-methylphenyl)-2-methylbut-3-yn-2-ol], the IC50 lay within 1000 to 10000 nM.

For the compound `Cc1nn(C)c2c1C(c1cccnc1)SCCN2` (stereo not drawn) [D.99], the IC50 was greater than 10000 nM.

Take `Cn1nc(-c2ccccn2)c2c1NCCSC2c1ccc(-c2cnn(CCC(N)=O)c2)cc1Cl` (stereo not drawn) [U.18]: the IC50 fell in the range of 100 to 1000 nM.

In the case of `Cc1cc(C(=O)Nc2cccnc2C)ccc1[C@H]1SC[C@@H](C)Nc2c1c(-c1ccncn1)nn2C` (single isomer, unassigned) [M.60, 4-(1,7-dimethyl-3-(pyrimidin-4-yl)-4,6,7,8-tetrahydro-1H-pyrazolo[3,4-e][1,4]thiazepin-4-yl)-3-methyl-N-(2-methylpyridin-3-yl)benzamide], the IC50 lay in the range of 1000 to 10000 nM.

With `Cn1nc(-c2ccc(C(C)(C)C)cc2)c2c1NCCSC2c1ccc(Cl)cc1Cl` (stereo not drawn) [D.88], the IC50 is 1000 to 10000 nM.

As for `Cc1cc(CCC(C)(C)O)ccc1[C@H]1SC[C@@H](C)Nc2c1c(-c1ccccn1)nn2C` (single isomer, unassigned) [M.43, 4-(4-(1,7-dimethyl-3-(pyridin-2-yl)-4,6,7,8-tetrahydro-1H-pyrazolo[3,4-e][1,4]thiazepin-4-yl)-3-methylphenyl)-2-methylbutan-2-ol], the IC50 was in the range of 1000 to 10000 nM.

Consider `Cn1nc(-c2ccccn2)c2c1NCCSC2c1ccc(-c2cnn(CCN3CCOCC3)c2)cc1Cl` (stereo not drawn) [U.5], for which the IC50 was 1000 to 10000 nM.

For the compound `Cc1cc(Cl)ccc1C1SCCNc2c1c(-c1ccccn1)nn2C` (single isomer, unassigned), the IC50 is less than 100 nM.

As for `CCn1nc(-c2ccccn2)c2c1N[C@@H](C)CS[C@@H]2c1ccc(C(N)=O)cc1C` (single isomer, unassigned) [M.45, 4-(1-ethyl-7-methyl-3-(pyridin-2-yl)-4,6,7,8-tetrahydro-1H-pyrazolo[3,4-e][1,4]thiazepin-4-yl)-3-methylbenzamide], the IC50 fell in the range of 1000 to 10000 nM.

For `COc1ccccc1C1SCCNc2c1c(C)nn2C` (stereo not drawn) [D.98], the IC50 is greater than 10000 nM.

Consider `CC(=O)N1CCN(c2ccc(-c3ccc(C4SCCNc5c4c(-c4ccccn4)nn5C)c(Cl)c3)cn2)CC1` (stereo not drawn) [U.14], for which the IC50 lay in the range of 1000 to 10000 nM.

Consider `Cn1nc(-c2ccccn2)c2c1NCCSC2c1ccc(-c2ccc(S(C)(=O)=O)nc2)cc1Cl` (stereo not drawn) [U.13], for which the IC50 fell in the range of 100 to 1000 nM.

For the compound `CCn1nc(-c2ccccn2)c2c1N[C@H](C)CS[C@@H]2c1ccc(CCCO)cc1C` (single isomer, unassigned) [M.34, 3-(4-(1-ethyl-7-methyl-3-(pyridin-2-yl)-4,6,7,8-tetrahydro-1H-pyrazolo[3,4-e][1,4]thiazepin-4-yl)-3-methylphenyl)propan-1-ol], the IC50 was 100 to 1000 nM.

As for `Cn1nc(-c2ccc(OC(F)(F)F)cc2)c2c1NCCSC2c1ccc(Cl)cc1Cl` (stereo not drawn) [D.95], the IC50 lay within 1000 to 10000 nM.

Regarding `COC(=O)c1ccc(C2SCCNc3c2c(-c2ccccn2)nn3C)cc1` (stereo not drawn) [E.2, methyl 4-[1-methyl-3-(2-pyridyl)-4,6,7,8-tetrahydropyrazolo[3,4-e][1,4]thiazepin-4-yl]benzoate], the IC50 lay in the range of 1000 to 10000 nM.

Turning to `Cc1cc(C#CCCO)ccc1[C@H]1SC[C@@H](C)Nc2c1c(-c1ccccn1)nn2C` (single isomer, unassigned) [M.56, 4-(4-(1,7-dimethyl-3-(pyridin-2-yl)-4,6,7,8-tetrahydro-1H-pyrazolo[3,4-e][1,4]thiazepin-4-yl)-3-methylphenyl)but-3-yn-1-ol], the IC50 is 100 to 1000 nM.

On to `COC(=O)c1ccc(C2SC(C)(C)CNc3c2c(C)nn3C)c(C)c1` (stereo not drawn) [E.4, methyl 3-methyl-4-(1,3,6,6-tetramethyl-7,8-dihydro-4H-pyrazolo[3,4-e][1,4]thiazepin-4-yl)benzoate], for which the IC50 lay in the range of 100 to 1000 nM.

Consider `COCCn1cc(-c2ccc(C3SCCNc4c3c(-c3ccccn3)nn4C)c(Cl)c2)cn1` (stereo not drawn) [U.15], for which the IC50 is 1000 to 10000 nM.

Take `Cc1cc(CCCO)ccc1[C@H]1SC[C@@H](C)Nc2c1c(-c1ccccn1)nn2C` (single isomer, unassigned) [M.50, 3-(4-(1,7-dimethyl-3-(pyridin-2-yl)-4,6,7,8-tetrahydro-1H-pyrazolo[3,4-e][1,4]thiazepin-4-yl)-3-methylphenyl)propan-1-ol]: the IC50 fell in the range of 1000 to 10000 nM.

In the case of `COC(=O)c1ccc(-c2nn(C)c3c2C(c2ccc(Cl)cc2Cl)SCCN3)nc1` (stereo not drawn) [E.6, methyl 6-[4-(2,4-dichlorophenyl)-1-methyl-4,6,7,8-tetrahydropyrazolo[3,4-e][1,4]thiazepin-3-yl]pyridine-3-carboxylate], the IC50 was in the range of 1000 to 10000 nM.
